We go through three compounds from publication PMC3644560 (Journal of the American Chemical Society, 2013).

One test deals with Aquifex aeolicus IspH. The following applies: Aquifex aeolicus enzyme, DT-reduced MV ref 26; cited from earlier work.
Test [1] concerns the target T1, E. coli IspH (Escherichia coli, UniProt P62623). The test is described as follows: IspH inhibition assay using [3-14C]HMBPP and the NADPH/FpR1/FldA reducing system. The following applies: steady-state studies with [3-14C]HMBPP and NADPH/FpR1/FldA. The test is classed as biochemical.
In test [2] the target is T1, E. coli IspH. The test is described as follows: Spectrophotometric IspH assay. The class given is biochemical. The following applies: for substrate for IspH (NADPH consumption at 340 nm): 200 μM compound, IspH 0.5 μM, anaerobic, pH 8.
Test [3] addresses T1, E. coli IspH. The class given is biochemical.
Where [4] appears, read: fit of kapp vs [AMBPP] to Eqn 2, mechanism A, pH 8, 37 °C.

T1 sequence (P62623 whole entry): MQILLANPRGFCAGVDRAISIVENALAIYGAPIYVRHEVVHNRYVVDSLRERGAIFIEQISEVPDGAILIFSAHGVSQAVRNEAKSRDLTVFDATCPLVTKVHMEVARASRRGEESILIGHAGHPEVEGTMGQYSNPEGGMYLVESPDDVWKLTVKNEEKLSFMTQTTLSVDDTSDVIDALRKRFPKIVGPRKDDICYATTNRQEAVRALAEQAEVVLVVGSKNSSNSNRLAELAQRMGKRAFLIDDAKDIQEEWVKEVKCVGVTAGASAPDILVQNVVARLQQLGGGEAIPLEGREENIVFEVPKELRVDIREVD

With `C#CCCOP(=O)(O)OP(=O)(O)O` [3-butynyl diphosphate], in the test with Aquifex aeolicus IspH, the IC50 is 450 nM.

Regarding `C/C(=C\COP(=O)(O)OP(=O)(O)O)CN.N.N` [AMBPP, (E)-4-Amino-3-methylbut-2-enyl 1-diphosphate bis ammonium salt], at E. coli IspH [1], the mode of inhibition entry is on record as “competitive inhibition was confirmed”. At E. coli IspH [2], the affinity corresponds to a Ki of 54 ± 19 nM and the “substrate for IspH (NADPH consumption at 340 nm)” value is given as “not substrates for IspH”. Moreover, the “effect of pH on inhibition constant and rate of binding to IspH” value on E. coli IspH [2] (Figures S5 and S6) is “decrease as pH increases”. Moreover, at E. coli IspH [2] (setting [4]), the “k3 (rate constant of formation of the EI complex)” value stood at 41000 M⁻¹ s⁻¹ and the “k4 (rate constant of dissociation of the EI complex)” value is 0.0022 s⁻¹. Inhibition at E. coli IspH [3] was half-maximal at 150 ± 20 nM (IC50).

`C/C(=C\COP(=O)(O)OP(=O)(O)O)CS.N.N` [TMBPP, (E)-4-Mercapto-3-methyl-but-2-en-1-yl diphosphate bis ammonium salt]: on E. coli IspH [1], the mode of inhibition result is listed as “competitive inhibitor”. The “substrate for IspH (NADPH consumption at 340 nm)” value on E. coli IspH [2] is “not substrates for IspH”. Also, it took 210 ± 10 nM to reach half-maximal inhibition on E. coli IspH [3] (IC50).
